Laboratory results reported in US20220054465A1, “(PYRIDIN-2-YL)AMINE DERIVATIVES AS TGF-BETA R1 (ALK5) INHIBITORS FOR THE TREATMENT OF CANCER” (Nexys Therapeutics, Inc., priority 2018, published 2022).

Tested on: HEK-Blue TGFβ cell
Test: HEK-Blue TGFβ cellular reporter gene assay (SEAP readout)
Assay type: cell-based
Settings: HEK-Blue TGFβ cells stimulated with TGF-β, 22-23 h incubation, SEAP read at 630 nm
Method: HEK-Blue TGFβ Cellular Reporter Gene Assay:
HEK-Blue TGFβ cell was purchased from Invivogen. Cell suspension of 2.5×10^5 cells/ml was prepared using Test Medium (DMEM containing 0.5% v/v heat-inactivated FBS). TGF-β working solution (6 ng/ml) was obtained through diluting TGF-β stock solution (10 μg/ml) by Test Medium before use. Eight different concentrations of all compounds were obtained by 3× gradient dilution method using TGF-β working solution. Add 100 μl of Test Medium (Vehicle) or test article or TGF-β working solution per well of a flat-bottom 96-well plate. Add 100 μl of HEK-Blue TGF-β cell suspension per well. Incubate the plate at 37° C. in a CO2 incubator for 22-23 h. Add 150 μl of resuspended QUANTI-Blue per well of a new flat-bottom 96-well plate. Add 30 μl of induced HEK-Blue TGF-β cells supernatant. Avoid pipetting at the bottom of wells. Incubate the plate at 37° C. incubator for 30-40 min. Determine secreted embryonic alkaline phosphatase (SEAP) levels using a spectrophotometer at 630 nm.
The inhibition was calculated using the equation: […]

| SMILES | IC50 [nM] |
| --- | --- |
| CCc1nc(-c2ccccn2)c(Oc2ccnc(Nc3cccc(CCC(=O)O)c3)c2)cc1C [Example 139] | 42 |
| Cc1ccc(Oc2ccnc(Nc3cccc(CC(C)(C)c4nn[nH]n4)c3)c2)c(-c2ccccc2)n1 [Example 192] | 65 |
| Cc1ccc(Oc2ccnc(Nc3cccc(C(C)(C)CC(=O)O)c3)c2)c(-c2ccccc2)n1 [Example 110] | 30 |
| Cc1ccc(Oc2ccnc(Nc3cccc(CC(C)(C)C(=O)O)c3)c2)c(-c2ccccc2)n1 [Example 140] | 35 |
| Cc1ccc(Oc2ccnc(Nc3cccc(CCc4nn[nH]n4)c3)c2)c(-c2cnn(C)c2)n1 [Example 62] | 2110 |
| Cc1ccc(Oc2ccnc(Nc3cccc(C4(C(=O)O)CC4)c3)c2)c(-c2ccccc2)n1 [Example 77, 1-(3-((4-((6-methyl-2-phenylpyridin-3-yl)oxy)pyridin-2-yl)amino)phenyl)cyclopropane-1-carboxylic acid] | 80 |
| Cc1ccc(Nc2cc(Oc3cn(C4CC4)nc3C3CCOCC3)ccn2)cc1C(=O)O [Example 114] | 2540 |
| CCc1cc(Oc2ccnc(Nc3cccc(C(C)(C)C(=O)O)c3)c2)c(-c2ccccc2)nc1C [Example 100] | 2590 |
| Cc1cc(Oc2ccnc(Nc3ccc(Cl)c(CCC(=O)O)c3)c2)c(-c2ccccn2)nc1C [Example 5] | 150 |
| c1cc(CCc2nn[nH]n2)cc(Nc2cc(Oc3cn(C4CC4)nc3C3CCOCC3)ccn2)c1 [Example 67, N-(3-(2-(2H-tetrazol-5-yl)ethyl)phenyl)-4-((1-cyclopropyl-3-(tetrahydro-2H-pyran-4-yl)-1H-pyrazol-4-yl)oxy)pyridin-2-amine] | 2650 |
| Cc1ccc(Oc2ccnc(Nc3cccc(CCc4nn[nH]n4)c3)c2)c(-c2ccccn2)n1 [Example 55] | 200 |
| Cc1ccc(Oc2ccnc(Nc3ccc(Cl)c(CCC(=O)O)c3)c2)c(C)n1 [Example 41] | 100 |
| Cc1ccc(Oc2ccnc(Nc3ccc(F)c(CCC(=O)O)c3)c2)c(C)n1 [Example 36, 3-(5-((4-((2,6-dimethylpyridin-3-yl)oxy)pyridin-2-yl)amino)-2-fluorophenyl)propanoic acid] | 180 |
| Cc1cc(Oc2ccnc(Nc3cccc(C(C)(C)CC(=O)O)c3)c2)c(-c2ccccn2)nc1C [Example 109] | 51 |
| COc1ccccc1-c1nc(C)ccc1Oc1ccnc(Nc2cccc(C(C)(C)C(=O)O)c2)c1 [Example 86] | 240 |
| Cc1cc(Oc2ccnc(Nc3cccc(Cc4nnn(CC(=O)O)n4)c3)c2)c(-c2ccccn2)nc1C [Example 34A, 2-(5-(3-((4-((5,6-dimethyl-[2,2′-bipyridin]-3-yl)oxy)pyridin-2-yl)amino)benzyl)-2H-tetrazol-2-yl)acetic acid] | 12700 |
| Cc1ccc(Oc2ccnc(Nc3cccc(CCC(=O)O)c3)c2)c(C#N)n1 [Example 43] | 3810 |
| Cc1cc(CC(C)(C)C(=O)O)cc(Nc2cc(Oc3cn(C4CC4)nc3-c3ccccc3)ccn2)c1 [Example 170] | 14 |
| Cc1ccc(Oc2ccnc(Nc3cccc(CCC(=O)O)c3F)c2)c(C)n1 [Example 40] | 220 |
| Cc1cc(Oc2ccnc(Nc3cccc(CC(C)(C)C(=O)O)c3)c2)c(-c2ccccn2)nc1C [Example 137] | 71 |
| Cc1cc(Nc2cc(Oc3cn(C4CC4)nc3C3CCOCC3)ccn2)cc(C(C)(C)c2nn[nH]n2)c1 [Example 196] | 270 |
| Cc1ccc(Oc2ccnc(Nc3cccc(C(C)(C)c4nnn[nH]4)c3)c2)c(-c2ccccc2)n1 [Example 60] | 79 |
| COc1ccc(-c2nc(C)ccc2Oc2ccnc(Nc3cccc(C(C)(C)C(=O)O)c3)c2)cc1 [Example 88] | 39 |

| SMILES | IC50 [nM] |
| --- | --- |
| Cc1nc2ccccc2cc1Oc1ccnc(Nc2cccc(CCc3nn[nH]n3)c2)c1 [Example 59] | 450 |
| Cc1cc(Oc2ccnc(Nc3ccc(Cc4nnn(CC(=O)O)n4)cc3)c2)c(-c2ccccn2)nc1C [Example 35A] | > 10000 |
| Cc1cc(Oc2ccnc(Nc3ccc(F)c(CCc4nnn[nH]4)c3)c2)c(-c2ccccn2)nc1C [Example 21] | 160 |
| Cc1cc(Nc2cc(Oc3cn(C4CC4)nc3C3CCOCC3)ccn2)cc(C(=O)O)c1 [Example 112] | 1670 |
| CC(C)(C(=O)O)c1cccc(Nc2cc(Oc3cn(C4COC4)nc3-c3ccccc3)ccn2)c1 [Example 126] | 200 |
| Cc1cc(Cc2nn[nH]n2)cc(Nc2cc(Oc3cn(C4CC4)nc3C3CCOCC3)ccn2)c1 [Example 194] | 4140 |
| Cc1ccc(Oc2ccnc(Nc3cccc(CCc4nn[nH]n4)c3)c2)c(-c2cccnc2)n1 [Example 53] | 2950 |
| Cc1ccc(Oc2ccnc(Nc3cccc(C(C)(C)C(=O)O)c3)c2)c(C2CCOCC2)n1 [Example 108] | 900 |
| Cc1cc(CCc2nn[nH]n2)cc(Nc2cc(Oc3cc(Cl)c(C)nc3C)ccn2)c1 [Example 189] | 24 |
| Cc1cc(Nc2cc(Oc3cc(C)c(C)nc3C3CCOCC3)ccn2)cc(C(C)(C)C(=O)O)c1 [Example 143] | 130 |
| Cc1ccc(Oc2ccnc(Nc3cc(CCc4nn[nH]n4)ccn3)c2)c(C)n1 [Example 48] | 3030 |
| Cc1ccc(Oc2ccnc(Nc3cccc(C(F)(F)C(=O)O)c3)c2)c(-c2ccccc2)n1 [Example 131, 2,2-difluoro-2-(3-((4-((6-methyl-2-phenylpyridin-3-yl)oxy)pyridin-2-yl)amino)phenyl)acetic acid] | 1730 |
| Cc1cc(Cc2nn[nH]n2)cc(Nc2cc(Oc3cn(C4CC4)nc3-c3ccccc3)ccn2)c1 [Example 199] | 60 |
| CCc1nc(C)c(Oc2ccnc(Nc3cc(C)cc(CC(C)(C)C(=O)O)c3)c2)cc1C [Example 152] | 20 |
| Cc1cc(CC(C)(C)C(=O)O)cc(Nc2cc(Oc3ccc(C)nc3-c3ccccc3)ccn2)c1 [Example 141] | 12 |
| Cc1cc(Oc2ccnc(Nc3cccc(CCC(=O)O)n3)c2)c(-c2ccccn2)nc1C [Example 7] | 170 |
| CCc1nc(C)c(Oc2ccnc(Nc3cc(C)cc(CC(C)(C)C(=O)O)c3)c2)cc1Cl [Example 156] | 23 |
| Cc1cc(Nc2cc(Oc3cc(C)c(C)nc3-c3ccccn3)ccn2)cc(C(C)(C)C(=O)O)c1 [Example 134] | 78 |
| Cc1cc(Oc2ccnc(Nc3cccc(OCc4nnn[nH]4)c3)c2)c(-c2ccccn2)nc1C [Example 33] | 7310 |
| CCc1ccc(Oc2ccnc(Nc3cc(C)cc(CCc4nn[nH]n4)c3)c2)c(C)n1 [Example 187] | 27 |
| Cc1nc(-c2ccccc2)c(Oc2ccnc(Nc3cccc(C(C)(C)C(=O)O)c3)c2)cc1Cl [Example 99] | 23 |
| Cc1cc(Nc2cc(Oc3cc(Cl)c(C)nc3C)ccn2)cc(C(C)(C)C(=O)O)c1 [Example 157] | 27 |
| c1ccc(-c2nn(C3CCC3)cc2Oc2ccnc(Nc3cccc(CCc4nn[nH]n4)c3)c2)cc1 [Example 200] | 86 |

| SMILES | IC50 [nM] |
| --- | --- |
| CC(C)(C(=O)CO)c1cccc(Nc2cc(Oc3cn(C4CC4)nc3C3CCOCC3)ccn2)c1 [Example 159] | 140 |
| Cc1ccc(Oc2ccnc(Nc3cccc(CCc4nn[nH]n4)n3)c2)c(C)n1 [Example 47] | 310 |
| Cc1ccc(Oc2ccnc(Nc3cc(CCC(=O)O)ccc3F)c2)c(C)n1 [Example 39] | 260 |
| CCc1nc(-c2ccccn2)c(Oc2ccnc(Nc3cccc(CCc4nn[nH]n4)c3)c2)cc1C [Example 185] | 39 |
| Cc1ccc(Oc2ccnc(Nc3cccc(C(C)(C)C(=O)O)c3)c2)c(-c2ccc(C#N)cc2)n1 [Example 97] | 200 |
| Cc1nc(-c2ccccn2)c(Oc2ccnc(Nc3cccc(CCc4nn[nH]n4)c3)c2)cc1C1CC1 [Example 182] | 640 |
| Cc1cc(Oc2ccnc(Nc3cccc(C(C)(C)C(=O)O)c3)c2)c(-c2ccccc2)nc1C [Example 98] | 51 |
| CCc1ccc(Oc2ccnc(Nc3cccc(CCC(=O)O)c3)c2)c(C)n1 [Example 146] | 21 |
| Cc1ccc(Oc2ccnc(Nc3cccc(CCc4nn[nH]n4)c3)c2)c(-c2ccncc2)n1 [Example 54] | 6390 |
| CC(C)(c1cccc(Nc2cc(Oc3cn(C4CC4)nc3C3CCOCC3)ccn2)c1)c1nn[nH]n1 [Example 195] | 2230 |
| Cc1cc(Oc2ccnc(Nc3cccc(C(C)(C)c4nnn[nH]4)c3)c2)c(-c2ccccn2)nc1C [Example 18] | 180 |
| Cc1cc(Oc2ccnc(Nc3cc(F)cc(CCc4nn[nH]n4)c3)c2)c(-c2ccccn2)nc1C [Example 179] | 170 |
| O=C(O)CCc1cccc(Nc2cc(Oc3cn(C4CCC4)nc3-c3ccccc3)ccn2)c1 [Example 173] | 26 |
| Cc1ccc(Oc2ccnc(Nc3ccc(F)c(CCc4nn[nH]n4)c3)c2)c(C)n1 [Example 51] | 270 |
| CC(C)(C(=O)O)c1cccc(Nc2cc(Oc3ccc(C4CC4)nc3-c3ccccc3)ccn2)c1 [Example 105] | 130 |
| Cc1ccc(Oc2ccnc(Nc3cccc(CCc4nn[nH]n4)c3)c2)c(-c2ncccc2C)n1 [Example 64] | 2600 |
| Cc1ccc(Oc2ccnc(Nc3cccc(CCc4nn[nH]n4)c3)c2)c(C2CCOCC2)n1 [Example 191] | 3690 |
| CCc1nc(C)c(Oc2ccnc(Nc3cc(C)cc(CCc4nn[nH]n4)c3)c2)cc1Cl [Example 186] | 51 |
| Cc1cc(Oc2ccnc(Nc3ccc(F)c(CCC(=O)O)c3)c2)c(-c2ccccn2)nc1C [Example 4] | 200 |
| Cc1cc(CC(=O)O)cc(Nc2cc(Oc3cn(C4CC4)nc3C3CCOCC3)ccn2)c1 [Example 164] | 1110 |
| Cc1nc(-c2ccccc2)c(Oc2ccnc(Nc3cccc(C(C)(C)C(=O)O)c3)c2)cc1C1CC1 [Example 101] | 3310 |
